Measured values taken from ChEMBL document CHEMBL1201862, “PubChem BioAssay data set” (2004).
Calls of active or inactive are those of the source.

Experiments:
[1] = biological target: T1, Calpain-2 catalytic subunit (Sus scrofa, UniProt P43367); experiment: m-calpain protease blockers, concentration series – biochemical, fluorogenic peptide substrate, dose response (AID 1420); type: functional
T1 sequence (P43367 whole entry): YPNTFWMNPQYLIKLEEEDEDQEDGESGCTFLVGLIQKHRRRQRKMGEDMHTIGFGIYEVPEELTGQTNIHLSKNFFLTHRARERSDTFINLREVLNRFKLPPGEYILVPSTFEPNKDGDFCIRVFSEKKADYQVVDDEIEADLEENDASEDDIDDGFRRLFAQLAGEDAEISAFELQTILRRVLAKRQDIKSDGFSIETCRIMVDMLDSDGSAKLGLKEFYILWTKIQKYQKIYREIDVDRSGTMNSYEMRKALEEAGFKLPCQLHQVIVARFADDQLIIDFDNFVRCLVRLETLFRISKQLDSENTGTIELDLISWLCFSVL

[2] = luciferase reporter signal suppression in cells – H4 neuroglioma cells, luminescence, dose response (AID 1990); type: functional, cell-based
[3] = Luminescence Cell-Based Dose Response HTS to Identify Inhibitors of 5'UTR Stem-Loop Driven Prion Protein mRNA Translation in H4 Neuroglioblastoma Cells. [Related pubchem assays: 1827 (Project Summary), 1813 (Primary HTS)]; type: functional
[4] = alpha-synuclein stem-loop luciferase translation blockers – H4 neuroglioma cells, luminescence, confirmation (AID 1988); type: functional, cell-based
[5] = fluconazole-exposed Candida albicans growth modulators – fluorescence, retest, confirmation (AID 2467); type: functional, cell-based
[6] = microbe, parasite or virus in culture; type: functional; conditions: Mycobacterium tuberculosis
[7] = NIH-3T3 fibroblast cytotoxicity, dose response, cytotoxicity control, cell-based, fluorescence, Alamar Blue, secondary assay (AID 2327); type: functional;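 note: NIH-3T3 mouse fibroblasts cultured with fluconazole at 8 µg/mL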
[8] = blockers of HIV-1 envelope-mediated cell-cell fusion – cherry-pick, dose response (AID 652057); type: functional, cell-based
[9] = HIV-1 AD8 envelope cell-cell fusion blockers – cherry-pick, dose response (AID 652062); type: functional, cell-based;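 note: luciferase signal from cell-cell fusion driven by HIV-1 clade B AD8 Env; potency is for inhibitors of fusion seen as a drop in luminescence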
[10] = biological target: T2, Fatty acid synthase (Homo sapiens, UniProt P49327); experiment: inhibition of human FAS-TE enzyme activity – biochemical, endpoint fluorescence intensity, uHTS hits, dose response (AID 624327); type: functional;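 note: fluorescence from hydrolysis of an O-methyl fluorescein acyl ester substrate by the enzyme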
[11] = biological target: T2, Fatty acid synthase; experiment: inhibition of human FAS-TE enzyme activity – biochemical, kinetic fluorescence intensity, dose response (AID 624326); type: functional;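 note: rate of fluorescence rise from hydrolysis of a fluorogenic O-methyl fluorescein ester substrate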
[12] = cells; type: functional
[13] = biological target: Heat shock protein HSP 90-alpha (Homo sapiens, UniProt P07900); type: functional, organism-based
[14] = loss of viability in HepG2 cells – cell-based, CellTiter-Glo, cherry-picked, cytotoxicity control for Shn3 inhibitor project, dose response (AID 624134); type: functional
[15] = reduction of Shn3 3'UTR-driven luciferase in osteoblasts – cell-based, Clone20 osteoblasts, firefly luciferase, cherry-picked, dose response (AID 624132); type: functional;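 note: firefly luciferase luminescence from reporter carrying the Shn3 3'UTR in osteoblasts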
[16] = system: Streptococcus sp. 'group A'; experiment: Streptococcus pyogenes SK(-)GAS viability under kanamycin – luminescence, BacTiterGlo, confirmation, counter-screen for streptokinase expression inhibitor project, dose response (AID 1900); type: functional, organism-based
[17] = non-specific 3'UTR reporter inhibition in Clone20-Shn3RL – cell-based, Renilla luciferase, cherry-picked, counter-screen for Shn3 inhibitor project, dose response (AID 624133); type: functional
[18] = system: Streptococcus; experiment: GAS UMAA2166 growth inhibition – luminescence, BacTiterGlo, counter-screen for streptokinase expression inhibitor project, dose response (AID 1915); type: functional, organism-based;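 note: potency for reduction of bacterial viability or growth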
[19] = biological target: T3, Streptokinase A (Streptococcus pyogenes serotype M1, UniProt P10520); experiment: viability-normalized secreted streptokinase activity reduction – plasminogen activation absorbance, OD405, dose response (AID 1914); type: functional, Streptococcus pyogenes M1 GAS;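 note: secreted streptokinase activity via plasminogen activation per viability signal from cell pellet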
T3 sequence (P10520 whole entry): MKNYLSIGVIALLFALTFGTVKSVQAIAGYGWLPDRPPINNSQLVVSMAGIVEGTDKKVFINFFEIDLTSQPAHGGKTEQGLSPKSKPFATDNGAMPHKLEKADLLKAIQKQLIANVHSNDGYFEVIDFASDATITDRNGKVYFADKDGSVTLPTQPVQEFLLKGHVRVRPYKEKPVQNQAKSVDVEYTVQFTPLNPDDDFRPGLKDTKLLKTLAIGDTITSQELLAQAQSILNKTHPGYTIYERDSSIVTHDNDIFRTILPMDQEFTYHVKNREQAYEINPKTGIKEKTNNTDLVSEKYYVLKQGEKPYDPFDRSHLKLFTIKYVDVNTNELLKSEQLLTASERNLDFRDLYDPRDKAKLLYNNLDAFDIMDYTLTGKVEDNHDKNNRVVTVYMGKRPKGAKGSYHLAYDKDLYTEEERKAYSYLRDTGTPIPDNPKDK

[20] = THP-1 cell cytotoxicity, dose response, cytotoxicity control for non-replicating M. tuberculosis project (AID 489025); type: functional
[21] = Vero E6 cell cytotoxicity, dose response, cytotoxicity control for non-replicating M. tuberculosis project, secondary assay (AID 492998); type: functional, VeroE6; conditions: Vero C1008
[22] = biological target: T4, Heat shock factor protein 1 (Mus musculus, UniProt P38532); experiment: enhancement of HSF1-driven luciferase signal – cell-based, NIH3T3, luminescence, dose retest, confirmation (AID 435004); type: functional;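 note: stress induced by proteasome inhibitor MG132 added 30 min after compound; luciferase reporter driven by HSF1 response element in NIH3T3 cells; actives raise luminescence as potentiators of the MG132 stress response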
T4 sequence (P38532 whole entry): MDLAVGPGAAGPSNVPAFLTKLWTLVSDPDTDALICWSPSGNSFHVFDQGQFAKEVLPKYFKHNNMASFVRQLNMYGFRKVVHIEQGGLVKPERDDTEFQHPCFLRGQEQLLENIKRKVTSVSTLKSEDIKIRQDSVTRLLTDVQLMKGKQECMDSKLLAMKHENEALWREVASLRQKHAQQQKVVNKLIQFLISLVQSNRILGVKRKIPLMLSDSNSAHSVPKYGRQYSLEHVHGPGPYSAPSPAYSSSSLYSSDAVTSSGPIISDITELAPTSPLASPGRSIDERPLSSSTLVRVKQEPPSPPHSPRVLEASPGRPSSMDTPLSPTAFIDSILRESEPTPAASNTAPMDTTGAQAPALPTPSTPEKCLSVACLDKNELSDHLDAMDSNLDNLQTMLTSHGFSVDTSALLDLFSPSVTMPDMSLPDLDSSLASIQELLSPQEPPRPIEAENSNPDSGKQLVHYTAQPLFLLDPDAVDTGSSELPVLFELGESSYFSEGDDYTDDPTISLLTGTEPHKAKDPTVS

[23] = NIH3T3 cell viability loss – ATP luminescence, mouse fibroblasts, counter-screen, dose response (AID 2010); type: functional, cell-based;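 note: cells exposed to compound for about 90 hours before reading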
[24] = Trypanosoma cruzi growth suppression in host cells – NIH3T3 host cells, beta-gal luminescence, confirmation (AID 2044); type: functional, cell-based;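 note: intracellular parasites grown in NIH/3T3 mouse fibroblasts as host cells; luminescent beta-galactosidase reporter signal from transgenic T. cruzi replicating inside host cells; inhibitors lower the luminescence signal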
[25] = biological target: Cytochrome P450 3A4 (Homo sapiens, UniProt P08684);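 note: CYP3A4 tested as one member of a cytochrome P450 panel screen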
[26] = system: INS1; experiment: INS-1E survival protection against cytokine death – cell-based, luminescence, retest, dose response (AID 449756); type: functional; conditions: Rattus norvegicus;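 note: cell death triggered by IL-1 beta plus TNF-alpha plus IFN-gamma mixture; protective hits raise ATP signal compared with cytokine alone wells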
[27] = growth inhibition of yeast DHODH-expressing 3D7 parasites – SYBR Green, dry powder samples, dose response (AID 1159570); type: functional, cell-based;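 note: parasite growth measured after 72 hours of compound exposure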
[28] = growth inhibition of PfATP4-mutant resistant parasites – NITD609-resistant line, SYBR Green, dry powder, dose response (AID 1159571); type: functional, cell-based;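 note: parasites synchronized at ring stage by sorbitol before testing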
[29] = P. falciparum Dd2 growth inhibitors, dose response, SYBR Green, cherry-picked samples (AID 1159567); type: functional, cell-based
[30] = Dd2 malaria parasite growth inhibition potency – SYBR Green, dry powder samples, dose response (AID 1159566); type: functional, cell-based;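 note: potency for growth inhibition with lower SYBR green DNA signal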
[31] = toxicity to human hepatoma HepG2 cells – cell-based, cherry-picked samples, cytotoxicity control, dose response (AID 1159577); type: functional

T2 sequence (P49327 whole entry): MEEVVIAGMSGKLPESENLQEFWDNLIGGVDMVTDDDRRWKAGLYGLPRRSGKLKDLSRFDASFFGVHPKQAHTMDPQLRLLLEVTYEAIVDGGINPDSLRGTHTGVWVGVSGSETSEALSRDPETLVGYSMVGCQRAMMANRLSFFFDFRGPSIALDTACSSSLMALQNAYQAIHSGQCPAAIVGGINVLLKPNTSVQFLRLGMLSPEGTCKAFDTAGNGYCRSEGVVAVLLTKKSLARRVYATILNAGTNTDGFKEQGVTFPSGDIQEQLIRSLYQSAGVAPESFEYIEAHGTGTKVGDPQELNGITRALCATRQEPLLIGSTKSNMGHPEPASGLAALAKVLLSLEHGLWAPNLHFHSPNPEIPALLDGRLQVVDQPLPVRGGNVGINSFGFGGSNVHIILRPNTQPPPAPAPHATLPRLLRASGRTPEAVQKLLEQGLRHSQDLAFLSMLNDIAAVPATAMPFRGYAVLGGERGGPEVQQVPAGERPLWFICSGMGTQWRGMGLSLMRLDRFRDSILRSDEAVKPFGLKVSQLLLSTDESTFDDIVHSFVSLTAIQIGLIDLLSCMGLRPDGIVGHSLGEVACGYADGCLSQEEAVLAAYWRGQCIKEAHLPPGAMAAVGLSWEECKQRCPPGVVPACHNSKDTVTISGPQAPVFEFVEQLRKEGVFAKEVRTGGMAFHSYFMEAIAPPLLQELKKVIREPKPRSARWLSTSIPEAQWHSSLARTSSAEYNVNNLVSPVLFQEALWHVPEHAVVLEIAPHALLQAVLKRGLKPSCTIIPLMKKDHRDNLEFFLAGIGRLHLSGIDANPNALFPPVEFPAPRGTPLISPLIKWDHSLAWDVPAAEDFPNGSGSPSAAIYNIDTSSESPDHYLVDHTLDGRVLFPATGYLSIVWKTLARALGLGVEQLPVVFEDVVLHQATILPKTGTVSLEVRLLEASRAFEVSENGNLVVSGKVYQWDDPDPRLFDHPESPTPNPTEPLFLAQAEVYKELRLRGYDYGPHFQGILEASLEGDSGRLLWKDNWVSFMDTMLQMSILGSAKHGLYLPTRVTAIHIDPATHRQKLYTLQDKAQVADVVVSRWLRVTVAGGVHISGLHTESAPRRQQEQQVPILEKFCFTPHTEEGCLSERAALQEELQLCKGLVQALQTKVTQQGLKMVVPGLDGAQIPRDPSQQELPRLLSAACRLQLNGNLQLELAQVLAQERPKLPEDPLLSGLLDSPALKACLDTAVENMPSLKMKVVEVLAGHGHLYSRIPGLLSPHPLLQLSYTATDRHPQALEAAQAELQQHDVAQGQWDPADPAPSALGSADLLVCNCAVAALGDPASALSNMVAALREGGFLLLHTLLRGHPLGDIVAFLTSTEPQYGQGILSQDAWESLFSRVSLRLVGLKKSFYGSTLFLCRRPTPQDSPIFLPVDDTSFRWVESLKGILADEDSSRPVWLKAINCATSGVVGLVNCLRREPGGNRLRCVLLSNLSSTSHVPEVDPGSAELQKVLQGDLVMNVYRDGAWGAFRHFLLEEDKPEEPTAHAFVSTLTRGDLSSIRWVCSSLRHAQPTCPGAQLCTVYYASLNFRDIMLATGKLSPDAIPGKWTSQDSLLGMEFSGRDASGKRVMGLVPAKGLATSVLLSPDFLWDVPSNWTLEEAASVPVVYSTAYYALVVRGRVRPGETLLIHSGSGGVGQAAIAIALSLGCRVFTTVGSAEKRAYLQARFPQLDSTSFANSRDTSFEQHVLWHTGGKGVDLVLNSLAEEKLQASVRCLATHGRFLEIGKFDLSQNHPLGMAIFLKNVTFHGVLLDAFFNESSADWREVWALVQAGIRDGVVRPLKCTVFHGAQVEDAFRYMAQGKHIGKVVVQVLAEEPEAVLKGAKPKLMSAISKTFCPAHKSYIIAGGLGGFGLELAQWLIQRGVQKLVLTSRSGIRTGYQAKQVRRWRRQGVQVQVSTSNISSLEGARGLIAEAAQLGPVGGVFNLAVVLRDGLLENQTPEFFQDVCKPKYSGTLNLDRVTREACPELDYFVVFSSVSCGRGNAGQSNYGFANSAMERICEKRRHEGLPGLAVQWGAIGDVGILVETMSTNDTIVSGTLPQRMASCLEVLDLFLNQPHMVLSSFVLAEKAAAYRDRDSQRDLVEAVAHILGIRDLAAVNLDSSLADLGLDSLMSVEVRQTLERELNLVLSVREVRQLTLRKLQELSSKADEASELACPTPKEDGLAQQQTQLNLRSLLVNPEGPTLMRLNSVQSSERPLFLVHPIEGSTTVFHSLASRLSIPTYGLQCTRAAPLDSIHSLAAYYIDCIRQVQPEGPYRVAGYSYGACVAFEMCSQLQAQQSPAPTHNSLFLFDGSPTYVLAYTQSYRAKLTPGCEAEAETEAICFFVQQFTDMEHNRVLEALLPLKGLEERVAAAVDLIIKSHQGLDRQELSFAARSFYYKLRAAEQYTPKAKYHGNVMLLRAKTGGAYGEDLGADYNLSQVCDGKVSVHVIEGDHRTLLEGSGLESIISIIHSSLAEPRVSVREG
Chain of Cytochrome P450 3A4 (P08684 whole entry): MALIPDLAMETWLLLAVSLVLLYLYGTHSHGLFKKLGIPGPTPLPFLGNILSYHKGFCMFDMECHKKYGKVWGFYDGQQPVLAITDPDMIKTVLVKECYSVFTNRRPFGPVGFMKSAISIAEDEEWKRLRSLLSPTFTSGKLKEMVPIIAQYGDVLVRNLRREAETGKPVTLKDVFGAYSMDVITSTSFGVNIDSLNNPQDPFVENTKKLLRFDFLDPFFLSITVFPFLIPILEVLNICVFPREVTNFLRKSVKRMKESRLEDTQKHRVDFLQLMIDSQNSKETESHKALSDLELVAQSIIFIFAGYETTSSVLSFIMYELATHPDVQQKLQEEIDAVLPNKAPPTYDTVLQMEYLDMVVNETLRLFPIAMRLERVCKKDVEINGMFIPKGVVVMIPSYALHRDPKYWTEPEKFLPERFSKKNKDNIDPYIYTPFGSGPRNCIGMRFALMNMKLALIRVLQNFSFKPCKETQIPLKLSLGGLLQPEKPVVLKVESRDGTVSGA

## O=c1c2ccccc2nc(SCc2cn3ccsc3n2)n1-c1ccccc1F
[1]
  IC50: < 0.4 µM (not active)

## Cc1cccc(NC(S)=NCCSc2ccc(Cl)cc2)c1
[1]
  IC50: 3.87 µM (not active)
[2]
  EC50: > 120 µM (not active)
[3]
  EC50: 62.6 µM (active)
[4]
  EC50: 84.8 µM (active)

## Cc1ccc(C2C3=C(CC(C)(C)CC3=O)N=C3c4ccccc4C(=O)C32)cc1 (stereo not drawn)
[5]
  EC50: 1.01 µM (active)
[6]
  CC50: > 40 µM (active)
[7]
  EC50: 24 µM (active)

## CC(=O)c1c(C)[nH]c(C(=O)OCC(=O)Nc2ccc(Cl)c(S(=O)(=O)N(C)C)c2)c1C
[8]
  AC50: 2.76 µM (active)
[9]
  AC50: 40.4 µM (active)

## Cc1ccc(C(=O)CN(CCCC(N)=O)S(=O)(=O)c2ccc([N+](=O)[O-])cc2)cc1
[10]
  IC50: 3.83 µM (active)
[11]
  IC50: 2.83 µM (active)

## Cc1nn(-c2ccccc2)nc1C(=O)c1c(C)nn(-c2ccccc2)c1O
[6]
  CC50: 35.8 µM (active)
[12]
  IC50: 12.8 µM (active)

## CC(C)=CCc1cc([C@@H]2COc3c(ccc4c3C=CC(C)(C)O4)C2)c(O)cc1O
[13]
  AC50: 3.57 µM (active)
[14]
  AC50: 58.3 µM (active)
[15]
  AC50: 7.54 µM (active)
[16]
  EC50: 1.8 µM (active)
[17]
  AC50: 4.11 µM (active)
[18]
  EC50: 5.23 µM (active)
[19]
  EC50: > 150 µM (not active)

## COc1ccc(NC(=O)CN(c2ccc([N+](=O)[O-])cc2)S(=O)(=O)c2ccccc2)cc1
[10]
  IC50: 7.77 µM (active)
[11]
  IC50: 3.48 µM (active)

## CC(C)C(=O)N1CCN(c2ccccc2N)CC1
[1]
  IC50: 0.734 µM (not active)

## CN1C(=O)C(=C(Nc2ccccc2)SCc2ccccc2Cl)C(=O)N(C)C1=O
[20]
  CC50: > 40 µM (active)
[12]
  IC50: 3.96 µM (active)
[21]
  CC50: > 20 µM (active)

## CC(C)(C)SCCNC(=O)c1ccc(Cl)c([N+](=O)[O-])c1
[13]
  AC50: 2.84 µM (active)
[10]
  IC50: 6.39 µM (active)
[11]
  IC50: 5.65 µM (active)

## CC(=O)Oc1ccc(-c2cccc(C(=O)OCC(=O)N(C)c3ccccc3)c2)cc1
[1]
  IC50: 14.2 µM (not active)
[22]
  EC50: > 260 µM (inactive)

## Cc1ccc(-c2nnc(NC(=O)c3ccco3)o2)c(C)c1
[20]
  CC50: > 40 µM (active)
[12]
  IC50: 0.81 µM (active)
[21]
  CC50: 17.5 µM (active)

## COCCn1c(-c2ccc(OC(F)(F)C(F)C(F)(F)F)cc2)nc2c1c(=O)[nH]c(=O)n2CC(C)C (stereo not drawn)
[6]
  CC50: > 40 µM (active)

## O=C(Nc1cccc(Cl)c1N1CCCC1)c1ccc([N+](=O)[O-])o1
[20]
  CC50: 24 µM (active)
[12]
  IC50: 18.4 µM (active)
[21]
  CC50: 12.4 µM (active)

## CCn1c(CNc2ccc(Cl)cc2)nnc1SCc1ccc(C)cc1
[13]
  AC50: 8.07 µM (active)

## Cc1ccc(N2C(=O)C3CC(c4ccccc4)=C4C5C=CC(C6C(=O)N(c7ccc(C)cc7C)C(=O)C56)C4C3C2=O)c(C)c1 (stereo not drawn)
[23]
  EC50: > 60 µM (not active)
[22]
  EC50: > 260 µM (inactive)
[24]
  EC50: 2.49 µM (active)
[10]
  IC50: 17.4 µM (active)
[11]
  IC50: 10.3 µM (active)

## Cc1cc(-c2cc(-c3ccc(Cl)cc3)nc(N)c2C#N)co1
[13]
  AC50: 6.87 µM (active)
[2]
  EC50: 20.9 µM (active)
[3]
  EC50: > 120 µM (not active)
[25]
  AC50: 17.8 µM (inconclusive)
[4]
  EC50: > 120 µM (not active)

## Cc1ccc(Cn2c(C(CO)Nc3nc(-c4ccc(F)cc4)cs3)nc3ccccc32)cc1 (stereo not drawn)
[6]
  CC50: 28.5 µM (active)
[16]
  EC50: 5.27 µM (active)
[18]
  EC50: 5.23 µM (active)
[19]
  EC50: > 150 µM (not active)

## O=C(NNc1c(Cl)cc(Cl)cc1Cl)c1cccc([N+](=O)[O-])c1
[26]
  AC50: 3.93 µM (active)
[10]
  IC50: 10.7 µM (active)
[11]
  IC50: 6.77 µM (active)

## COc1ccc(C(=O)N2CCN(c3ncnc4c(-c5ccccc5)nsc34)CC2)cc1
[1]
  IC50: 4.3 µM (not active)

## C[C@H]1CN([C@@H](C)CO)C(=O)c2cc(NC(=O)Nc3ccc4c(c3)OCO4)ccc2O[C@H]1CN(C)S(=O)(=O)c1ccc(F)cc1
[8]
  AC50: 15.2 µM (active)
[9]
  AC50: 39 µM (active)

## O=C(CC(=O)N/N=C\c1ccc([N+](=O)[O-])cc1)NCCc1ccccc1
[10]
  IC50: 23.6 µM (inactive)
[11]
  IC50: 20.3 µM (inactive)

## Cc1cc(/C=N/NC(=O)C(=O)NCc2ccccn2)c(C)n1-c1cccc(Br)c1
[1]
  IC50: < 0.4 µM (not active)

## CC(C)NC(=O)Nc1ccc2c(c1)C(=O)N(C)[C@H]1CC[C@H](CC(=O)Nc3ccccc3)O[C@H]1CO2
[27]
  AC50: 1.23 µM (active)
[28]
  AC50: 1.23 µM (active)
[29]
  AC50: 1.25 µM (active)
[30]
  AC50: 1.26 µM (active)

## Cc1ccccc1-c1ccc2c(c1)O[C@@H](CN(C)Cc1ccncc1)[C@H](C)CN([C@H](C)CO)S2(=O)=O
[31]
  AC50: > 39 µM (inactive)
[29]
  AC50: 3.9 µM (active)

## COc1ccc2c3c(n(C)c2c1)[C@@H](CO)N(C(=O)Nc1ccc(F)cc1)CC31CN(Cc2ccccc2F)C1
[31]
  AC50: 24.2 µM (active)
[29]
  AC50: 5.53 µM (active)

## CCCc1cn(CC[C@H]2CC[C@H](NS(=O)(=O)c3ccc(-c4ccccc4)cc3)[C@@H](CO)O2)nn1
[31]
  AC50: > 39 µM (inactive)
[29]
  AC50: 4.48 µM (active)
